Two molecules from patent publication US6998411B2, “2-Methylheptylisonicotinate and process for production thereof” (Council of Scientific and Industrial Research, priority 2001, dated 2006) can be followed below.

≈ marks a conversion by molar mass, not a printed value. Like-named read-outs stand apart in the source and are kept apart here.

Type in all cases: cell-based
The subject of assay [1] is Bacillus subtilis. Put plainly: antibacterial activity, MIC.
The test system of assay [2] is Proteus mirabilis. Put plainly: antibacterial activity, MIC.
The subject of a further assay is F. moniliformae. The experiment in a line: antifungal activity, MIC.
In assay [3] the test system is E. coli. The experiment in a line: antibacterial activity, MIC. Particulars: Escherichia coli.
The subject of another assay is F. oxysponim. Put plainly: antifungal activity, MIC.
Assay [4] deals with Shigella sp. Put plainly: antibacterial activity, MIC.
The subject of another assay is Arthrobacter sp. The experiment in a line: antibacterial activity, MIC.
Assay [5] has as its system Klebsiella sp. Put plainly: antibacterial activity, MIC.
Assay [6] has as its system F. solani. Put plainly: antifungal activity, MIC. Particulars: Fusarium solani.
The test system of assay [7] is Rhizoctonia solani. The experiment in a line: antifungal activity, MIC.
The next assay relates to F. semitectum. Put plainly: antifungal activity, MIC. Particulars: Fusarium incarnatum.
Assay [8] deals with Rhizoctonia solani. The experiment in a line: agar cup assay, zone of inhibition. Particulars: purified compound, 10 μg of the substance. The procedure: (§1) 2-Methylheptylisonicotinate of formula 1 was bioassayed following agar cup assay method (Grammer, 1976). […] The antibacterial activity of the bioactive molecule was tested against dominant bacterial strains such as Bacillus subtilis, E. coli, Shigella sp., Klebsiella sp. and Proteus mirabilis. Maximum inhibition was recorded in E. coli (30 mm in diameter) and Proteus mirabilis (28 mm). […] Maximum zone of inhibition was recorded in Fusarium solani and F. semitechtum (26 mm with 10 μg of the substance), and in F. oxysporum inhibition zone was 25 mm. Similar inhibition was also observed in F. moniliformae and Rhizoctonia solani (24 mm and 22 mm) respectively (Tables 2, 3 & 4). The above antibiotic activity against dominant pathogens is the clear indication of the potential application of the compound for both agricultural and medical purposes.
as §1, with “2-Methylheptylisonicotinate” for “2-Methylheptylisonicotinate of formula”, “(Table” for “(Tables”, “4).” for “4). The above antibiotic activity against dominant pathogens is the clear indication of the potential application of the compound for both agricultural and medical purposes.”

The next assay has as its system F. oxysporum. The experiment in a line: agar cup assay, zone of inhibition. Particulars: purified compound, 10 μg of the substance. How it is done: as §1
as §1, with “2-Methylheptylisonicotinate” for “2-Methylheptylisonicotinate of formula”, “(Table” for “(Tables”, “4).” for “4). The above antibiotic activity against dominant pathogens is the clear indication of the potential application of the compound for both agricultural and medical purposes.”

Assay [9] concerns E. coli. Put plainly: agar cup assay, zone of inhibition. Particulars: purified compound, 10 μg of the substance. How it is done: as §1
as §1, with “2-Methylheptylisonicotinate” for “2-Methylheptylisonicotinate of formula”, “(Table” for “(Tables”, “4).” for “4). The above antibiotic activity against dominant pathogens is the clear indication of the potential application of the compound for both agricultural and medical purposes.”

The next assay relates to Fusarium moniliforme. The experiment in a line: agar cup assay, zone of inhibition. The conditions noted are these: purified compound, 10 μg of the substance. The procedure:
as §1
as §1, with “2-Methylheptylisonicotinate” for “2-Methylheptylisonicotinate of formula”, “(Table” for “(Tables”, “4).” for “4). The above antibiotic activity against dominant pathogens is the clear indication of the potential application of the compound for both agricultural and medical purposes.”

Assay [10] relates to Bacillus subtilis. Put plainly: agar cup assay, zone of inhibition. Particulars: purified compound, 10 μg of the substance. The procedure:
as §1
as §1, with “2-Methylheptylisonicotinate” for “2-Methylheptylisonicotinate of formula”, “(Table” for “(Tables”, “4).” for “4). The above antibiotic activity against dominant pathogens is the clear indication of the potential application of the compound for both agricultural and medical purposes.”

The subject of assay [11] is Proteus mirabilis. The experiment in a line: agar cup assay, zone of inhibition. Particulars: purified compound, 10 μg of the substance. The procedure: as §1
as §1, with “2-Methylheptylisonicotinate” for “2-Methylheptylisonicotinate of formula”, “(Table” for “(Tables”, “4).” for “4). The above antibiotic activity against dominant pathogens is the clear indication of the potential application of the compound for both agricultural and medical purposes.”

The test system of assay [12] is F. solani. Put plainly: agar cup assay, zone of inhibition. The conditions noted are these: purified compound, 10 μg of the substance. How it is done:
as §1
as §1, with “2-Methylheptylisonicotinate” for “2-Methylheptylisonicotinate of formula”, “(Table” for “(Tables”, “4).” for “4). The above antibiotic activity against dominant pathogens is the clear indication of the potential application of the compound for both agricultural and medical purposes.”

In assay [13] the test system is Klebsiella sp. The experiment in a line: agar cup assay, zone of inhibition. Particulars: purified compound, 10 μg of the substance. How it is done:
as §1
as §1, with “2-Methylheptylisonicotinate” for “2-Methylheptylisonicotinate of formula”, “(Table” for “(Tables”, “4).” for “4). The above antibiotic activity against dominant pathogens is the clear indication of the potential application of the compound for both agricultural and medical purposes.”

Assay [14] concerns Shigella sp. The experiment in a line: agar cup assay, zone of inhibition. Particulars: purified compound, 10 μg of the substance. How it is done: as §1
as §1, with “2-Methylheptylisonicotinate” for “2-Methylheptylisonicotinate of formula”, “(Table” for “(Tables”, “4).” for “4). The above antibiotic activity against dominant pathogens is the clear indication of the potential application of the compound for both agricultural and medical purposes.”

The subject of a further assay is F. semitechtum. The experiment in a line: agar cup assay, zone of inhibition. Particulars: purified compound, 10 μg of the substance. How it is done: as §1
as §1, with “2-Methylheptylisonicotinate” for “2-Methylheptylisonicotinate of formula”, “(Table” for “(Tables”, “4).” for “4). The above antibiotic activity against dominant pathogens is the clear indication of the potential application of the compound for both agricultural and medical purposes.”

The mark [15] stands for this setting: Fusarium oxysporum, read-out: MIC.

Consider `NNC(=O)c1ccncc1` [Isoniazid, isonicotinic acid hydrazide, reference compound], for which the MIC against Bacillus subtilis [1] turned out to be 150 µg/mL (≈ 1090 µM); in the assay on Proteus mirabilis [2], 200 µg/mL (≈ 1460 µM); in the assay with F. moniliformae (read-out: MIC) it was 200 µg/mL (≈ 1460 µM); against E. coli [3] it was 250 µg/mL (≈ 1820 µM); with F. oxysponim (setting [15]), 350 µg/mL (≈ 2550 µM); in the assay with Shigella sp. [4] it was 300 µg/mL (≈ 2190 µM). Moreover, the MIC against Arthrobacter sp. came to 150 µg/mL (≈ 1090 µM); against Klebsiella sp. [5] it was 250 µg/mL (≈ 1820 µM); in the assay with F. solani [6], 300 µg/mL (≈ 2190 µM); in the assay with Rhizoctonia solani [7], 250 µg/mL (≈ 1820 µM); against F. semitectum, 300 µg/mL (≈ 2190 µM).
As to `CCCCCC(C)COC(=O)c1ccncc1` (stereo not shown) [Compound 1, 2-methylheptylisonicotinate], the MIC with Bacillus subtilis [1] turned out to be 50 µg/mL (≈ 212 µM); in the assay on Proteus mirabilis [2] it was 40 µg/mL (≈ 170 µM); with F. moniliformae (listed as I) it was 42 µg/mL (≈ 178 µM); in the assay with F. moniliformae (read-out: MIC), 45 µg/mL (≈ 191 µM); in the assay on E. coli [3], 70 µg/mL (≈ 297 µM); in the assay on F. oxysponim (F. oxysponim (F. oxysporum), listed as I), 45 µg/mL (≈ 191 µM). The MIC was 43 µg/mL (≈ 183 µM) with F. oxysponim (setting [15]); 60 µg/mL (≈ 255 µM) in the assay on Shigella sp. [4]; 40 µg/mL (≈ 170 µM) against Arthrobacter sp.; 50 µg/mL (≈ 212 µM) against Klebsiella sp. [5]; 20 µg/mL (≈ 85 µM) in the assay with F. solani [6]; 20 µg/mL (≈ 85 µM) in the assay with Rhizoctonia solani [7]. 20 µg/mL (≈ 85 µM) was the least that counted as inhibitory in the assay with F. semitectum (MIC). The Inhibition zone was found to be 22 mm in the assay with Rhizoctonia solani [8]; 25 mm in the assay with F. oxysporum; 30 mm with E. coli [9]; 24 mm in the assay on Fusarium moniliforme; 20 mm in the assay on Bacillus subtilis [10]; 28 mm in the assay with Proteus mirabilis [11]. For the same molecule, the Inhibition zone with F. solani [12] was determined as 26 mm; in the assay on Klebsiella sp. [13], 18 mm; in the assay with Shigella sp. [14], 20 mm; with F. semitechtum, 26 mm.

The MIC is the lowest concentration that inhibits growth of the organism.
